In article PMC6093650, “Antidepressive and anxiolytic effects of ostruthin, a TREK-1 channel activator” (PLoS ONE, 2018):

Molecular target: T1, HERG-3 (Homo sapiens, UniProt Q9NS40)
T1 construct: expressed in transfected cells; host or cells: 293T (transient, calcium-phosphate transfection)
T1 sequence (Q9NS40 1-1196): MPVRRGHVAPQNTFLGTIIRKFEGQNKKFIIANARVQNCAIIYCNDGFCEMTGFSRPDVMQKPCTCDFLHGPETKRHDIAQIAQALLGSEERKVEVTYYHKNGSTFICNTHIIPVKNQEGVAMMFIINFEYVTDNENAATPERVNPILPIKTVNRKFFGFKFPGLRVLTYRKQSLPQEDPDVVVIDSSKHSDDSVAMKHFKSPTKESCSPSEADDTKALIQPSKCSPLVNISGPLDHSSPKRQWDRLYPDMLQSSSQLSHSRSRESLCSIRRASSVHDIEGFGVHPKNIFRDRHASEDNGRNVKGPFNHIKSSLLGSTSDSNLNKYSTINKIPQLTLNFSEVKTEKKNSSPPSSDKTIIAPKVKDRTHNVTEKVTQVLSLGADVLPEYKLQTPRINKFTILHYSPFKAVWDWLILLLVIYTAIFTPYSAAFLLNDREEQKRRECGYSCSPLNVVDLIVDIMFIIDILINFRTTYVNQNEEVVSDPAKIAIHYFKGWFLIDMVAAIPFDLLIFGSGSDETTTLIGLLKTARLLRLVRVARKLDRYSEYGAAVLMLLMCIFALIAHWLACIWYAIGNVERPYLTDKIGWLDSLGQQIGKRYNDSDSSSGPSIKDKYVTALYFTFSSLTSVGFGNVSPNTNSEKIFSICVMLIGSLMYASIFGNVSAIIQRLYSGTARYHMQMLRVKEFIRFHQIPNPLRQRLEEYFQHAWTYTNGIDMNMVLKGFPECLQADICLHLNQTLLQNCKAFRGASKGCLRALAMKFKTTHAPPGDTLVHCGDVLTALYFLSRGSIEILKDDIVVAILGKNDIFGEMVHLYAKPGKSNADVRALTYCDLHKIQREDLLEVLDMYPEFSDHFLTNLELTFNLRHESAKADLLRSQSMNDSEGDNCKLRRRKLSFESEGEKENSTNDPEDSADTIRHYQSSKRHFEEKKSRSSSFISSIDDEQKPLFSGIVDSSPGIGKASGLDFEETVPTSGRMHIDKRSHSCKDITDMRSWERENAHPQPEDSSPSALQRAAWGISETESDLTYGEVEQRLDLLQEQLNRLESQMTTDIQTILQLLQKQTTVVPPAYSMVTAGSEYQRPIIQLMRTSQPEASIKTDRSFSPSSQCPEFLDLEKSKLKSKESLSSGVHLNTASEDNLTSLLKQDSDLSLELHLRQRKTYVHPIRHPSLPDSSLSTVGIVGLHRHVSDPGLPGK
Assay: whole-cell patch-clamp of HERG-3 currents in 293T cells
Assay type: cell-based
Details: 100 μM (data not shown)
From the text: For recordings of K^+ channel currents, we prepared stable cell lines for TREK-1, TWIK-related acid-sensitive K^+ channel (TASK-1), strongly inwardly rectifying K^+ channel (Kir2.1), and human ether-a-go-go-related gene (HERG-1) channels and transiently expressed other channels in 293T cells using a calcium-phosphate transfection method. For the establishment of the stable lines, we used lentiviral vectors, and the preparation methods for the lentiviral vectors were described in our previous report. TR-1 cells, which stably expressed TREK-1 channel and were grown on a small cover glass (3 × 18 mm), were placed in a recording chamber with an internal volume of 200 μl. Whole-cell currents were recorded in Tyrode solution using an Axopatch 200B amplifier (Axon Instruments, Foster City, CA) at 25°C. Tyrode solution contained (in mM): NaCl 140, KCl 5.4, NaH2PO4 0.33, CaCl2 2, MgCl2 1, HEPES 5, and glucose 5.5 (pH 7.4 adjusted with NaOH). […] Perfusion (100 μl/min) was continued to maintain the water level throughout recordings. pH and osmotic pressure of solutions were measured with a pH meter (Horiba, Kyoto, Japan) and a freezing point osmometer (Knauer, Berlin, Germany), respectively. […]

`CC(C)=CCC/C(C)=C/Cc1cc2ccc(=O)oc2cc1O` [ostruthin] was tested. Which “effect on HERG-3 channels” value did it give?
The value was “no effect”.
